Several values for one entry are separate records, joined by “and”; a condition that tells them apart may be missing. Equal values may be shown once.
Assays:
[1] = biological target: T1, γ-secretase (Homo sapiens, UniProt P49768); test: In vitro γ-secretase assay with recombinant C100Flag and CHO S-1 membrane, Aβ and AICD spectra by MALDI-TOF; format: biochemical; conditions: 20 μM
T1 construct: The membrane derived from the H4 neuroglioma cells overexpressing APP695wt were prepared by carbonate extraction; endogenous in cells; host or cells: H4 neuroglioma cells overexpressing APP695wt (membranes, carbonate extraction)
Procedure: Broken cell assays were performed with slight modifications from the previous studies. The membrane derived from the H4 neuroglioma cells overexpressing APP695wt were prepared by carbonate extraction and incubated at 37 °C for 2 h with CA at various concentrations. Aβ levels were quantified by sandwich ELISAs. For Aβ and AICD spectra, the recombinant C100Flag proteins were overexpressed and purified from Escherichia coli BL21 using a HiTrap Q-column (GE Life Science, Little Chalfont, U.K.). The membrane containing γ-secretase was isolated from the CHO S-1 cell line using sodium carbonate (100 mM, pH 11.0). For the in vitro γ-secretase assay, C100Flag recombinant protein at 25 μM was incubated with the membrane (100 μg/mL) in the presence of CA (20 μM) and DMSO in 150 mM sodium citrate buffer (pH 6.8) containing complete protease inhibitor (Roche, Indianapolis, IN) for 2 h at 37 °C.
(§1) Conditioned media from the CHO-2B7 cells and the samples prepared from in vitro γ-secretase studies were used to analyze Aβ and AICD profiles using matrix-assisted laser desorption/ionization time of flight (MALDI-TOF) mass spectrometry analysis. The secreted Aβ peptides were analyzed as previously described with the following modifications. […] Samples were analyzed using a Bruker Microflex LRF-MALDI-TOF mass spectrometer.

[2] = Plasma CA concentration after IP injection (HPLC-MS-MS); format: in vivo, mouse (C57BL/6); conditions: mice
Procedure: (§2) 25(R)-CA powder was initially dissolved in DMSO (<4.5 % in the final mixture) and then combined with polyethylene glycol (15)-hydroxystearate (Solutol), ethanol, and water at a ratio of (15:10:75). One molar equivalent of sodium hydroxide was added to the mixture. We performed CA intraperitoneal (IP) injections to wild-type mice (C57BL/6 or CF-1). The mice were injected with 25(R)-CA on the right side of the abdomen. The injections have been performed with various time points (30 min, 1 h, 2 h, and 3 h) and with multiple doses (30 mg per kg (mg/kg), 60 mg/kg, 75 mg/kg and 100 mg/kg). The number of each cohort is 6–8. We used 30 mg/kg of CA for the time-course experiments, and for the dose–response experiments the end-point was set at 30 min. The brains and serum are harvested and frozen for brain Aβ extraction.
The plasma samples were extracted using published solid phase extraction method (72) and analyzed by HPLC-MS-MS. Briefly, 0.1 ml mouse plasma samples after adding 20 μl of D3-CA as internal standard were preconditioned with 1.4 ml of ethanol (99.9 %), and 0.5 ml of water, centrifuged at 4 °C, 4000 rpm for 10 min. This solution was then loaded onto a Sep-Pak tC18 (SPE1) solid phase extraction cartridge which were preconditioned with 70 % ethanol. […]

[3] = test system: Aβ peptides in CHO-2B7 cells; test: IP/MS (MALDI-TOF) Aβ profile of CHO-2B7 conditioned media; format: cell-based, Chinese hamster; conditions: 3 μM, vs DMSO control
Procedure: Chinese hamster ovary (CHO) cells stably overexpressing APP695 (CHO-2B7 cells) were grown in Ham’s F-12 medium (Life Technologies) supplemented with 10 % fetal bovine serum and 100 units/ml of penicillin and 100 μg/ml streptomycin. Cells were grown at 37 °C in a humidified atmosphere containing 5 % CO2 in tissue culture plates (Costar). The cells were harvested at confluence and then utilized for biochemical analyses. Compounds were dissolved in dimethyl sulfoxide (DMSO) and screened in CHO-2B7 cells. The cells were incubated for 16 h in the presence of the compound diluted into OptiMEM-reduced serum medium (Life Technologies, Carlsbad, CA, USA) containing 1 % fetal bovine serum.
as §1, with “modifications. Briefly, the Aβ peptides were immunoprecipitated using Ab5 recognizing the Aβ1-16 epitope and sheep anti-mouse IgG magnetic Dynabeads (Life Technologies, catalog no. 11201D) and the AICD fragments were captured using anti-Flag M2 magnetic beads (Sigma).” for “modifications.”

[4] = Tolerability of IP doses in mice; format: in vivo, mouse; conditions: up to the highest dose 100 mg/kg
Procedure: as §2

## CC(CCC[C@@H](C)C(=O)O)[C@H]1CCC2C3CC=C4C[C@@H](O)CC[C@]4(C)C3CC[C@@]21C (stereo partly drawn) [Cmpd 2a, 25(R)-cholestenoic acid]
[1]; vs DMSO control
  ε-site utilizations (AICD49-99 and AICD50-99): did not affect
[1]; vs DMSO treated control
  Aβ spectra (MALDI-TOF): decrease Aβ42 peak and increase Aβ38 peak
[2]; 30 mg/kg IP, listed as CA
  plasma CA concentration: 200 ng/mL and ~ 500 nM
[2]; C57BL/6, mouse, plasma, intraperitoneal, 100 mg/kg IP
  concentration at 30 min: 4000 ng/mL and ~10 µM
[3]
  Aβ spectra by mass spectrometry: increased Aβ38 peak and decreased Aβ42 peak with no significant changes in Aβ40 peak
[4]
  tolerability: well tolerated

Source: publication PMC4501119, “Cholestenoic acid, an endogenous cholesterol metabolite, is a potent γ-secretase modulator” (Molecular Neurodegeneration, 2015)
